Experimental data from patent US20220402950A1, “SUBSTITUTED BENZIMIDAZOLES AS PAD4 INHIBITORS” (BRISTOL-MYERS SQUIBB COMPANY, priority 2018, published 2022).
Read-outs that look alike come from different tables or passages of the source.

Biological target: human PAD4 (hPAD4) (Homo sapiens, UniProt Q9UM07)
Test: RFMS Human PAD4 Functional Assay
Format: biochemical
Conditions: 5 nM hPAD4, 250 μM BAEE
Summary of the method: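 RapidFire ESI-MS quantification, normalised to a modified-citrulline internal standard, after phenyl glyoxal (final 4 mM) derivatisation of the TCA-quenched reaction. The enzyme (10 nM) sat 30 min with compound (up to 50 μM final) before 500 μM BAEE (as added) started a 90 min, 37 °C reaction. Buffer: HEPES pH 7.5, 50 μM calcium, 5 μM TPEN.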

[1] = hPAD4 RFMS IC50, human PAD4, rapid-fire mass spectrum (RFMS) assay

Sequence of human PAD4 (hPAD4) (Q9UM07 whole entry): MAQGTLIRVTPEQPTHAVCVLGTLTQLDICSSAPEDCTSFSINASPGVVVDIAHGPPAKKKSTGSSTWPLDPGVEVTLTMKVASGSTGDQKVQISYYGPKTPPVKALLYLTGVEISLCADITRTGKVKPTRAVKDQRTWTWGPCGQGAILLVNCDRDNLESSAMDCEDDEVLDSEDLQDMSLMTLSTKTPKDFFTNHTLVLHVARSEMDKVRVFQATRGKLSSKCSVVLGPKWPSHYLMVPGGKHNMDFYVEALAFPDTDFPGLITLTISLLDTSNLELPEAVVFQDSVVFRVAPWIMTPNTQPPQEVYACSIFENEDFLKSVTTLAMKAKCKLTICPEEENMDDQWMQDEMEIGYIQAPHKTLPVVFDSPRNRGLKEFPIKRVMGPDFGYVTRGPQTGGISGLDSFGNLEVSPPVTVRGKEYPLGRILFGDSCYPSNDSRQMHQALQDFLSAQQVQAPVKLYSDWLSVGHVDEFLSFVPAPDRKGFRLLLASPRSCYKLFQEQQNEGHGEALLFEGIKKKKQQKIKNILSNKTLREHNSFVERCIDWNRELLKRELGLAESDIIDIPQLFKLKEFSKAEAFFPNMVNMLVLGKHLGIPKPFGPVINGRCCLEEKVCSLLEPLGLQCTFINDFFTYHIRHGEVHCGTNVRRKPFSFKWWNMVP

| SMILES | IC50 (human PAD4, rapid-fire mass spectrum (RFMS) assay, read-out: hPAD4 RFMS IC50) [nM] | IC50 [1] [nM] |
| --- | --- | --- |
| COc1cc(C(=O)N2C[C@H]3CC[C@@H]2[C@@H]3N)cc2nc(-c3cc4cccc(-n5cc([C@H]6CC[C@H](N)CC6)nn5)c4n3CC3CC3)n(C)c12 [Example 109, (1R,4R,7R)-2-{2-[1-(cyclopropylmethyl)-7-{4-[(1r,4r)-4-aminocyclohexyl]-1H-1,2,3-triazol-1-yl}-1H-indol-2-yl]-7-methoxy-1-methyl-1H-1,3-benzodiazole-5-carbonyl}-2-azabicyclo[2.2.1]heptan-7-amine] | 175 |  |
| COc1cc(C(=O)N2C[C@H]3CC[C@@H]2[C@@H]3N)cc2nc(-c3cc4cccc(-c5cn[nH]c5)c4n3CC3CC3(F)F)n(C)c12 (stereo partly drawn) [Example 150, ((1R,4R,7R)-7-amino-2-azabicyclo[2.2.1]heptan-2-yl)(2-(1-((2,2-difluorocyclopropyl)meth-yl)-7-(1H-pyrazol-4-yl)-1H-indol-2-yl)-7-methoxy-1-methyl-1H-benzo[d]imidazol-5-yl)methanone] |  | 46 |
| COc1cc(C(=O)N2C[C@H]3CC[C@@H]2[C@@H]3N)cc2nc(-c3cc4cccc(CC5CCCCO5)c4n3CC3CC3)n(C)c12 (stereo partly drawn) [Example 36, (1R,4R,7R)-2-{2-[1-(cyclopropylmethyl)-7-[(oxan-2-yl)methyl]-1H-indol-2-yl]-7-methoxy-1-methyl-1H-1,3-benzodiazole-5-carbonyl}-2-azabicyclo[2.2.1]heptan-7-amine] |  | 199 |
